In assay [1] the target is T1, recombinant PKD (Homo sapiens, UniProt Q15139).
T1 construct: gene PRKD1; commercial recombinant kinase (Upstate)
T1 sequence (Q15139 1-912): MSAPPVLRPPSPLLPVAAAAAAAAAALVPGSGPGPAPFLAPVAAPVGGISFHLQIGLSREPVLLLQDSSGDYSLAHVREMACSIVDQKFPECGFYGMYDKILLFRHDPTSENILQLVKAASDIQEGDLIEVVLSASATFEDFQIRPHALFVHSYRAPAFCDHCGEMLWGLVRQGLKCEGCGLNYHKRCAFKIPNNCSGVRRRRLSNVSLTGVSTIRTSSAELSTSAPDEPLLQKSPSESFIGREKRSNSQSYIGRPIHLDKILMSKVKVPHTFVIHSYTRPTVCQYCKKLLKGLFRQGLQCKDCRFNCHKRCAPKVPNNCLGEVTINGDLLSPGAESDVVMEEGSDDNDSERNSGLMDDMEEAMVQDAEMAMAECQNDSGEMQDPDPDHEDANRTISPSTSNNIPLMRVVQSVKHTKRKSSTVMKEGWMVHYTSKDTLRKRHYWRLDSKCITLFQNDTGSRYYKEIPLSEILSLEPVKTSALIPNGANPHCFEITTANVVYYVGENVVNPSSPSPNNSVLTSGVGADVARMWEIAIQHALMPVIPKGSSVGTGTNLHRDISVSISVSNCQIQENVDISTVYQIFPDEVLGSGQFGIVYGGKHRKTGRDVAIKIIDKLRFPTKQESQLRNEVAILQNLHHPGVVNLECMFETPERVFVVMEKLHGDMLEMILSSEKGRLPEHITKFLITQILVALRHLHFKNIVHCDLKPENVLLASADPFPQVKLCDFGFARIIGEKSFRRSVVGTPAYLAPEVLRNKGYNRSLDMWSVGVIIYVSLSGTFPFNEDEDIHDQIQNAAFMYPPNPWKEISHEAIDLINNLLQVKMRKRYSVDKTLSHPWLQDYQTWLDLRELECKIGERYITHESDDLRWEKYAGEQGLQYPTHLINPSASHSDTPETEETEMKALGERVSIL
Nature of the assay: [γ-32P]ATP phosphorylation of c-Jun, SDS-PAGE autoradiography, densitometry. It is filed as biochemical. An excerpt: [γ-32P]ATP phosphorylation of c-Jun, SDS-PAGE autoradiography, densitometry on recombinant PKD

Assay [2] has as its target T2, Recombinant CK2 (2α2β) (Homo sapiens, UniProt P68400).
T2 construct: gene CSNK2A1; commercial recombinant holoenzyme (Calbiochem), alpha2beta2 tetramer; with Casein kinase II subunit beta
Described as above. It is filed as biochemical. The text has this: [γ-32P]ATP phosphorylation of c-Jun, SDS-PAGE autoradiography, densitometry on Recombinant CK2 (2α2β)

Read-outs that look alike come from different tables or passages of the source.

T2 sequence (P68400 whole entry): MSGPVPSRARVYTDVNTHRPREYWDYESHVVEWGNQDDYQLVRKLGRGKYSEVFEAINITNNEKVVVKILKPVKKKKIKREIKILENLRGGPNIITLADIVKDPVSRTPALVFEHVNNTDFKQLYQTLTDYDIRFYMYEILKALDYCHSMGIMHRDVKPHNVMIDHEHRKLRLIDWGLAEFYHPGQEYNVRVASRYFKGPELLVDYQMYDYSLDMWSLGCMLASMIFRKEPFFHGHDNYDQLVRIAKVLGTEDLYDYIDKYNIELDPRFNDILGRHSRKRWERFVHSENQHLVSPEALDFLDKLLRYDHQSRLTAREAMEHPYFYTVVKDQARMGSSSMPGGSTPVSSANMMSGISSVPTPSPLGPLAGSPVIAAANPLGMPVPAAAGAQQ
T2 sequence (P67870 2-215 partner): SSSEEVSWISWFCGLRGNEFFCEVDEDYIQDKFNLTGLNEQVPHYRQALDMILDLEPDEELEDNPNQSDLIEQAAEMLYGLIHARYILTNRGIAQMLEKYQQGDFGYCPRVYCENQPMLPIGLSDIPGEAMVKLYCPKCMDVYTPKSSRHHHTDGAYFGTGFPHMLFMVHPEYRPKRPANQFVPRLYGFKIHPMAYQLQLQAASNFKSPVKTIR

The term IC50 denotes the point on the concentration scale where inhibition reaches its midpoint. `COc1ccc2c(=O)c3ccccc3n(C)c2c1` [JFD02836, 3-methoxy-10-methyl-9,10-dihydro-9-acridinone]: the values for the IC50 in assay [1] and in assay [2] were 39.7 µM and 19.9 µM, respectively.

As for `O=C1C=CC(=O)c2c1c(O)c1ccccc1c2O` [BTB14431, 9,10-dihydroxy-1,4-dihydroanthracene-1,4-dione], the IC50 in assay [1] was found to be 68.9 µM; in assay [2], 6.4 µM.

As for `Oc1cc(O)cc(/C=C/c2ccc(O)c(O)c2)c1` [Piceatannol], the half-inhibitory concentration (IC50) in assay [1] (read-out: IC50 PKD) was 0.5 µM; in assay [2] (read-out: IC50 CK2) it was 2.5 µM.

Turning to `O=C(NN=Cc1cc(Cl)cc(Cl)c1O)c1ccccn1` [BTB00363, 2-Pyridinecarboxylic acid, [(3,5-dichloro-2-hydroxyphenyl)methylene]hydrazide], the IC50 was 118 µM in assay [1] (read-out: IC50 PKD) and 333 µM in assay [2] (read-out: IC50 CK2).

As to `Nc1c2c(nc3cccc(F)c13)OCCC2` [SEW04213, 6-fluoro-3,4-dihydro-2H-pyrano [2,3-b]quinolin-5-amine], the IC50 in assay [1] stood at 186 µM; in assay [2], 37.9 µM.

Take `O=C1C(=CO)c2ccccc2-c2ccccc21` [JFD03665, 10-(hydroxymethylene)phenanthren-9(10H)-one]: the IC50 in assay [1] was found to be 155 µM; in assay [2], 5.9 µM.
